Like-named read-outs stand apart in the source and are kept apart here.
How the values were obtained:
[1] = target: T1, N-terminally FLAG-tagged PARP2 (amino acids 1-583) (Homo sapiens, UniProt Q9UGN5); assay: PARP2 probe displacement HTRF assay; format: binding; conditions: binned Kd
T1 construct: N-terminally FLAG-tagged PARP2 (amino acids 1-583)
Protocol: Data analysis was performed identical as for PARP1.

[2] = target: T2, full length N-terminally FLAG-tagged PARP1 (Homo sapiens, UniProt P09874); assay: PARP1 probe displacement HTRF assay; conditions: for Selectivity: PARP1 over PARP2, ratio Kd (PARP2)/Kd (PARP1); for Kd: binned Kd
T2 sequence (P09874 whole entry): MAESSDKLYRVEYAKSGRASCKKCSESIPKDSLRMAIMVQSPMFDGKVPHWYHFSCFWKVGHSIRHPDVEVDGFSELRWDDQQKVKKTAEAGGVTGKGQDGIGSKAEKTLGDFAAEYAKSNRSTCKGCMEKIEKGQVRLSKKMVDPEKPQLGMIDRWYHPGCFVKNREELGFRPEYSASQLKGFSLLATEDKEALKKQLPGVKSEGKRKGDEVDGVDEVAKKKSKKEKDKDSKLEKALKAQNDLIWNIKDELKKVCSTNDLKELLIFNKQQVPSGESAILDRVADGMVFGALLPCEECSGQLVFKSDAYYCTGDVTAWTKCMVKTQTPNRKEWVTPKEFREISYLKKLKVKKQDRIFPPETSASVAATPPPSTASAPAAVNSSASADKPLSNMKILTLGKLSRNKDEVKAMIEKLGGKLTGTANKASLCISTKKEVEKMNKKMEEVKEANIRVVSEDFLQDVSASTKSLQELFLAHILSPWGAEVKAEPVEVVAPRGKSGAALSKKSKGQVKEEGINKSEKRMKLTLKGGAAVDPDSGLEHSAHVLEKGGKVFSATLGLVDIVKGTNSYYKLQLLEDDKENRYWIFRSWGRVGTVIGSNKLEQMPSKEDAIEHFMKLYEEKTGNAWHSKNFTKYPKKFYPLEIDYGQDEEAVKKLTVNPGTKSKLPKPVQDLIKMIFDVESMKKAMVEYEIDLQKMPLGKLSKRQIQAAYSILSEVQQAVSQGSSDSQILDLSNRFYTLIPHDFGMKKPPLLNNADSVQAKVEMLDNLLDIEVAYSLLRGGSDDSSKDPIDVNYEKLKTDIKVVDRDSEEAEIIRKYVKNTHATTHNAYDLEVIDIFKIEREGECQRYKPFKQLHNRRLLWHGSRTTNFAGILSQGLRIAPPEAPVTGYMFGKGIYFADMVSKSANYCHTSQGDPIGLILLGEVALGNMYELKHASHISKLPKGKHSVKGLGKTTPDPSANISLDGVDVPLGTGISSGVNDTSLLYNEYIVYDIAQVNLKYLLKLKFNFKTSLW

[3] = target: T2, full length N-terminally FLAG-tagged PARP1; assay: PARP1 biochemical DELFIA assay (auto-PARylation); design: recombinant full length human N-terminally FLAG-tagged PARP1
[4] = read-out: PARP1 HTRF, probe displacement HTRF
[5] = binned IC50, biochemical auto-PARylation assay
[6] = read-out: PARP1 HTRF, PARP1 probe displacement HTRF
[7] = binned IC50, PARP1 biochemical DELFIA assay
[8] = PARP1 HTRF, probe displacement HTRF

T1 sequence (Q9UGN5 whole entry, the tested form may be a part): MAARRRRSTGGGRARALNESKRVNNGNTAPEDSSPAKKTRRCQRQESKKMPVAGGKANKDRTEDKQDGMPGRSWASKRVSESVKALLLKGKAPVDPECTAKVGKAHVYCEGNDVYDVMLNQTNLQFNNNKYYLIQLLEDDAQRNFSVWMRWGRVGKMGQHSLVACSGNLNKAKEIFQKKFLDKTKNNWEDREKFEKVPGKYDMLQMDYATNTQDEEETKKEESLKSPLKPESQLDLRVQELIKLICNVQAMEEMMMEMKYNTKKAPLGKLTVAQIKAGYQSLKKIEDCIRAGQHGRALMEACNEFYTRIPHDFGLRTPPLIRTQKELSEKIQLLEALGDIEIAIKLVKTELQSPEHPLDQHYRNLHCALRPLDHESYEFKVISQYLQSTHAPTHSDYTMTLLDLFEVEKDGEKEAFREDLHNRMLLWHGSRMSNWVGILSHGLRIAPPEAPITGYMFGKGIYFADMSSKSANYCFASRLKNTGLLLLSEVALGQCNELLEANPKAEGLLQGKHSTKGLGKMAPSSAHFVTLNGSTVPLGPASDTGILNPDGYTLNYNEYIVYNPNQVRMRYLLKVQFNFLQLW

| SMILES | Kd ([1]; probe displacement HTRF) [µM] | Selectivity ([2]; probe displacement HTRF) | Kd [2, 4] [µM] | IC50 [3, 5] [µM] | Kd ([1]; PARP2 probe displacement HTRF) [µM] | Kd [2, 6] [µM] | IC50 [3, 7] [µM] | Kd [2, 8] [µM] | Kd ([2]; PARP1 HTRF, PARP1 probe displacement HTRF) [µM] |
| --- | --- | --- | --- | --- | --- | --- | --- | --- | --- |
| CNC(=O)c1ccc(N2CCC(N3CCC(c4nc5ccc(F)c(F)c5c(=O)[nH]4)C3)CC2)cn1 (single isomer, unassigned) [Compound 222b] | 0.01 to 0.1 | +++ (+++ indicate a value of at least 100) | < 0.01 | < 0.01 | – | – | – | – | – |
| O=c1[nH]c(C2CCN(C3CCN(c4ccc(F)cc4F)CC3)C2)nc2ccccc12 (single isomer, unassigned) [Compound 107b] | – | − (− indicates a value of less than 10) | – | – | 0.1 to 1 | 0.1 to 1 | 0.1 to 1 | – | – |
| O=c1[nH]c(CC2CCCN(C3CCC(F)(F)CC3)C2)nc2ccccc12 (single isomer, unassigned) [Compound 11a] | – | − (− indicates a value of less than 10) | – | – | > 10 | 0.1 to 1 | 1 to 10 | – | – |
| CC(=O)Nc1ccc(N2CCC(N3CCC(c4cc5ccccc5c(=O)[nH]4)C3)CC2)cn1 (single isomer, unassigned) [Compound 306b] | 0.1 to 1 | +++ (+++ indicate a value of at least 100) | < 0.01 | < 0.01 | – | – | – | – | – |
| CNC(=O)c1ccc(N2CCC(N3CC4(c5nc6ccncc6c(=O)[nH]5)CC3C4)CC2)c(F)n1 [Compound 305] | > 10 | +++ (+++ indicate a value of at least 100) | – | < 0.01 | – | – | – | < 0.01 | – |
| CNC(=O)c1ccc(N2CCC(N3CC4(c5nc6ncccc6c(=O)[nH]5)CC3C4)CC2)cn1 [Compound 311] | 1 to 10 | +++ (+++ indicate a value of at least 100) | – | < 0.01 | – | – | – | < 0.01 | – |
| CNC(=O)c1ccc(N2CCC(N3CCC(c4nc5cccc(F)c5c(=O)[nH]4)C3)CC2)cn1 (single isomer, unassigned) [Compound 101a] | – | + (+ indicates a value of 10 to less than 50) | – | – | 0.1 to 1 | 0.01 to 0.1 | 0.01 to 0.1 | – | – |
| CNC(=O)c1ccc(N2CCC(N3CCC(c4[nH]c(=O)c5ccccc5c4C(F)(F)F)C3)CC2)cn1 (single isomer, unassigned) [Compound 404a] | 1 to 10 | +++ (+++ indicate a value of at least 100) | 0.01 to 0.1 | 0.01 to 0.1 | – | – | – | – | – |
| CNC(=O)c1cc(C)c(N2CCC(N3CCC(c4cc5ccncc5c(=O)[nH]4)C3)CC2)c(C)n1 (racemic) [Compound 211rac] | – | +++ (+++ indicate a value of at least 100) | – | – | 0.1 to 1 | < 0.01 | < 0.01 | – | – |
| CNC(=O)c1ccc(N2CCC(N3CCC(c4[nH]c(=O)c5ccccc5c4C(F)(F)F)C3)CC2)cn1 (single isomer, unassigned) [Compound 404b] | 1 to 10 | +++ (+++ indicate a value of at least 100) | < 0.01 | < 0.01 | – | – | – | – | – |
| CCc1ccc(C2CCCN(C3CCN(c4ccc(C(=O)NC)nc4)CC3)C2)[nH]c1=O (single isomer, unassigned) [Compound 53a, 5-{4-[3-(5-ethyl-6-oxo-1H-pyridin-2-yl)piperidin-1-yl]piperidin-1-yl}-N-methylpyridine-2-carboxamide] | – | +++ (+++ indicate a value of at least 100) | – | – | 1 to 10 | – | < 0.01 | – | < 0.01 |
| CNC(=O)c1ccc(N2CCC(N3CC4(c5nc6ncc(F)cc6c(=O)[nH]5)CC3C4)CC2)c(F)n1 [Compound 369] | 1 to 10 | +++ (+++ indicate a value of at least 100) | – | < 0.01 | – | – | – | < 0.01 | – |
| CNC(=O)c1ccc(N2CCC(N3CCC(c4cc5c(F)ccc(F)c5c(=O)[nH]4)C3)CC2)cn1 (single isomer, unassigned) [Compound 180a] | – | +++ (+++ indicate a value of at least 100) | – | – | 1 to 10 | < 0.01 | < 0.01 | – | – |
| CNC(=O)c1ccc(N2CCC(N3CCCC(c4ccc(OC)c(=O)[nH]4)C3)CC2)cn1 (single isomer, unassigned) [Compound 147b] | – | − (− indicates a value of less than 10) | – | – | > 10 | 1 to 10 | 1 to 10 | – | – |
| CNC(=O)c1ncc(N2CCC(N3CCC(c4cc5ccc(F)cc5c(=O)[nH]4)C3)CC2)cc1F (single isomer, unassigned) [Compound 395a] | 0.1 to 1 | + (+ indicates a value of 10 to less than 50) | < 0.01 | < 0.01 | – | – | – | – | – |
| N#Cc1ccc(N2CCC(N3CCC(c4cc5cccc(F)c5c(=O)[nH]4)C3)CC2)c(Cl)c1 (single isomer, unassigned) [Compound 378b] | 1 to 10 | +++ (+++ indicate a value of at least 100) | < 0.01 | < 0.01 | – | – | – | – | – |

Reference: patent US20250152585A1, “PHARMACEUTICAL COMPOUND” (Duke Street Bio Limited, priority 2022, published 2025)
